Measurements reported in ChEMBL document CHEMBL1144822, “Gymnastatins and dankastatins, growth inhibitory metabolites of a gymnascella species from a Halichondria sponge” (2008).
Converted amounts (≈) assume the structure as drawn.

Key:
[1] = tested on: P388; experiment: Growth inhibition of mouse P388 cells; assay type: functional; conditions: read-out: ED50 (the source's name)
[2] = Growth inhibition of human BSY1 cells; assay type: functional; conditions: BSY-1, read-out: Log10GI50 (converted)
[3] = tested on: MKN-7; experiment: Growth inhibition of human MKN7 cells; assay type: functional; conditions: read-out: Log10GI50 (converted)
[4] = tested on: 39 human cancer cell line panel (Homo sapiens); experiment: Growth inhibition of 39 human cancer cell line panel; conditions: read-out: Log10GI50 (converted)

Row | EC50 [1] [µg/mL] | GI50 [3] [µM] | GI50 [4] [µM] | Compound | GI50 [2] [µM]
1 | 0.16 (≈ 0.349 µM) | – | – | CCCCCC[C@@H](C)/C=C(C)/C=C/C(=O)N[C@@H]1CO[C@H]2[C@@H](Cl)C(=O)C(Cl)=C[C@@]2(O)C1 [DANKASTATIN B] | –
2 | 0.15 (≈ 0.307 µM) | – | – | CCCCCC[C@@H](C)/C=C(C)/C=C/C(=O)N[C@H]1C[C@@]2(O)C=C(Cl)C(=O)[C@@H](Cl)[C@H]2O[C@@H]1OC [DANKASTATIN A] | –
3 | 2.8 (≈ 6.11 µM) | – | – | CCCCCC[C@@H](C)/C=C(C)/C=C/C(=O)N[C@H]1C[C@]2(O)C=C(Cl)C(=O)[C@@](Cl)(C2)[C@H]1O [GYMNASTATIN R] | –
4 | 1.7 (≈ 3.48 µM) | 6.76 | 15.5 | CCCCCC[C@@H](C)/C=C(C)/C=C/C(=O)N[C@H]1C[C@]2(O)C=C(Cl)C(=O)[C@](Cl)([C@@H]1O)[C@H]2OC [GYMNASTATIN Q] | 3.39
